From patent publication US12391641B2, “Prostaglandin EP4 receptor antagonist compounds” (NXERA PHARMA UK LIMITED, priority 2019, dated 2025)

target: T1, Human prostaglandin E2 receptor 4 (EP4) (Homo sapiens, UniProt P35408); experiment: cAMP Gs Functional Assay (HTRF cAMP dynamic-2), antagonism of PGE2; assay type: cell-based; settings: HEK293 cells transfected with EP4 BacMam virus; PGE2 challenge at EC80 (7 nM); pIC50 converted to functional pKb with a modified Cheng Prussoff equation; read-out: Human EP4 fpKb (converted)
T1 construct: expressed in transfected cells; host or cells: HEK293 cells transduced with EP4 BacMam virus
Description: Cloning, Baculovirus generation, large scale infection of HEK293 cells and membrane preparation: Human prostaglandin E2 receptor 4 (EP4) was cloned into pBacMam expression vector (GeneScript, UK). Transposition of EP4 DNA was performed using Invitrogen's Bac-to-Bac Baculovirus Expression Systems. P0 baculovirus was generated by transfecting SF9 Cells with bacmid DNA using Cellfectin II transfection reagent (ThermoFisher Scientific, UK, catalog number 10362-100). Following P0 generation P1 virus was then generated ready for large scale infection and membrane preparation. HEK293 cells were grown in DMEM+Glutamax, supplemented with 10% heat inactivated fetal bovine serum (FBS). Cells were infected at a seeding density of 3.5 million cells/mL in 500 cm^3 flasks at 5% v/v EP4 Bacman. Expression was carried out over 36 hr period at 37° C. with 5% CO2. The cells were removed using PBS and a cell scrapper. The cell culture was centrifuged at 2500 RPM for 10 mins at 4° C. The supernatant was then poured off and the pellet stored at −80° C. The pellet was defrosted and re-suspended in 15 mL of homogenising buffer (20 mM HEPES, 10 mM EDTA, pH 7.4). Then homogenised in mechanical homogeniser (VMR) for 10 seconds. The membrane was centrifuged in centrifuge tubes at 40,000 g for 15 mins at 4° C. The supernatant was poured away and re-suspended in 15 mL of homogenising buffer. Homogenised for 20 seconds. The membrane was centrifuged at 40,000 g for 45 mins at 4° C. The membrane was re-suspended in 3 mL of storage buffer (20 mM HEPES, 0.1 mM EDTA, pH 7.4) mixing well. The resulting membranes were then stored at −80° C.
cAMP Gs Functional Assay: cAMP production following EP4 receptor activation was determined using the Homogeneous Time-Resolved Fluorescence (HTRF) cAMP dynamic-2 assay (Cisbio, France). HEK293 cells were transfected using a 0.5% EP4 Bacman virus for 36 hours, before dissociating the cells, and freezing at […].
On the day of testing, increasing concentration of test compounds, alongside positive controls (1 uM ONO-AE3-208) and negative control (DMSO (Sigma-Aldrich, UK) were added to a ProxiPlate-384 Plus, White 384-shallow well Mircoplate, (PerkinElmer, USA) using the ECHO dispense.
Cells were defrosted in a water bath and resuspended in DMEM supplemented with 10% FBS before centrifuging at 1200 RPM for 5 mins to form a pellet. The pellet was resuspended in assay buffer (DMEM+0.5 mM IBMX (Tocris, Abingdon, UK, Catalog Number 2845)) to a 1×10^6 cells/mL. Cell suspension, for a final assay concentration of 5000 cell/well was added using the multidrop to the pre-dispensed assay plate. The plate was then incubated at 37° C. for 30 mins, with 5% CO2. After incubation, EC80 concentration (7 nM) of PGE2 (EP4 agonist) was added to the plate. In parallel, a PGE2 dose-response curve was dispense to a separate plate. Assay buffer was then dispensed on top. The cAMP production was determined as manufacturer's instructions, before plates were read on a PheraStar fluorescence plate reader (BMG LabTech, Germany).
The pIC50 was converted to a functional pKb value using a modified Cheng Prussoff equation where Kd=agonist EC50 and Lhot=agonist challenge concentration;

T1 sequence (P35408 whole entry): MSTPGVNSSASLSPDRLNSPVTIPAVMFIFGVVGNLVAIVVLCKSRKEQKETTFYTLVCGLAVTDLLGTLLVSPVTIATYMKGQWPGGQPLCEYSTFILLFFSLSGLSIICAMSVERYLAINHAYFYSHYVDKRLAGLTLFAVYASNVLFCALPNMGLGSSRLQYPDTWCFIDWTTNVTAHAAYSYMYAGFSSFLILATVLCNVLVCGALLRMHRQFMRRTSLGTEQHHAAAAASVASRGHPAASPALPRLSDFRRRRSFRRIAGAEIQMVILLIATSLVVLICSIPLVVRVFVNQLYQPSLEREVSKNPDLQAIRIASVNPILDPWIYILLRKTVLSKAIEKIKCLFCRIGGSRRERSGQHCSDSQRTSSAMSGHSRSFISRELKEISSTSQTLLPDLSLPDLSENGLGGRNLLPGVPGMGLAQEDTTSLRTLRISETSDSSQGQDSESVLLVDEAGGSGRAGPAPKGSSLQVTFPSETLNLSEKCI

Compound | Ki [nM]
CCS(=O)(=O)c1cccc(CO[C@@H](C(=O)NC2(c3ccc(C(=O)O)cc3)CC2)C(C)C)c1 [Example 56, (R)-4-(1-(2-((3-(ethylsulfonyl)benzyl)oxy)-3-methylbutanamido)cyclopropyl)benzoic acid] | 7.24
CC(C)[C@@H](OCc1ccc(F)c(OC(F)F)c1)C(=O)NC1(c2ccc(C(=O)O)cc2)CC1 [Example 57, (R)-4-(1-(2-((3-(difluoromethoxy)-4-fluorobenzyl)oxy)-3-methylbutanamido)cyclopropyl)benzoic acid] | 0.372
CC(C)[C@@H](OCc1cccc(OC(F)(F)F)c1)C(=O)NC1(c2ccc(C(=O)O)cc2)CC1 [Example 58, (R)-4-(1-(3-methyl-2-((3-(trifluoromethoxy)benzyl)oxy)butanamido)cyclopropyl)benzoic acid] | > 12900
CC(C)[C@@H](OCc1ccc(C(F)(F)F)cc1)C(=O)NCc1ccc(C(=O)O)cc1 [Example 59, (R)-4-((3-methyl-2-((4-(trifluoromethyl)benzyl)oxy)butanamido)methyl)benzoic acid] | 9.77
COCc1cccc(CO[C@@H](C(=O)NC2(c3ccc(C(=O)O)cc3)CC2)C(C)C)c1 [Example 60, (R)-4-(1-(2-((3-(methoxymethyl)benzyl)oxy)-3-methylbutanamido)cyclopropyl)benzoic acid] | 1.91
CC(C)[C@@H](OCc1ccc(C(F)F)c(F)c1)C(=O)NC1(c2ccc(C(=O)O)cc2)CC1 [Example 61, (R)-4-(1-(2-((4-(difluoromethyl)-3-fluorobenzyl)oxy)-3-methylbutanamido)cyclopropyl)benzoic acid] | 0.339
CC(C)[C@@H](OCc1ccc(C(F)F)cc1)C(=O)NC1(c2ccc(C(=O)O)cc2)CC1 [Example 62, (R)-4-(1-(2-((4-(difluoromethyl)benzyl)oxy)-3-methylbutanamido)cyclopropyl)benzoic acid] | 0.398
CC(C)[C@@H](OCc1ccc(C(F)(F)F)cc1)C(=O)NC1(c2ccc(C(=O)NS(C)(=O)=O)cc2)CC1 [Example 63, (R)-4-(1-(3-methyl-2-((4-(trifluoromethyl)benzyl)oxy)butanamido)cyclopropyl)-N-(methylsulfonyl)benzamide] | 25.7
CC(C)[C@@H](OCc1ccc(C(F)(F)F)cc1)C(=O)NC(C)(C)c1ccc(C(=O)O)cc1 [Example 64, (R)-4-(2-(3-methyl-2-((4-(trifluoromethyl)benzyl)oxy)butanamido)propan-2-yl)benzoic acid] | 47.9
CC(C)[C@@H](OCc1cccc(C2CC2)c1)C(=O)NC1(c2ccc(C(=O)O)cc2)CC1 [Example 65, (R)-4-(1-(2-((3-cyclopropylbenzyl)oxy)-3-methylbutanamido)cyclopropyl)benzoic acid] | > 209
CC(C)[C@@H](OCc1ccn2ccnc2c1)C(=O)N[C@@H](C)c1ccc(C(=O)O)cc1 [Example 66, 4-((S)-1-((R)-2-(imidazo[1,2-a]pyridin-7-ylmethoxy)-3-methylbutanamido)ethyl)benzoic acid] | 34.7
CC(C)[C@@H](OCc1ccnc(OC(F)F)c1)C(=O)NC1(c2ccc(C(=O)O)cc2)CC1 [Example 67, (R)-4-(1-(2-((2-(difluoromethoxy)pyridin-4-yl)methoxy)-3-methylbutanamido)cyclopropyl)benzoic acid] | 0.575
CC(C)[C@@H](OCc1cc(OC(F)F)ccn1)C(=O)NC1(c2ccc(C(=O)O)cc2)CC1 [Example 68, (R)-4-(1-(2-((4-(difluoromethoxy)pyridin-2-yl)methoxy)-3-methylbutanamido)cyclopropyl)benzoic acid] | 0.562
CC(C)[C@@H](OCc1ccc(C(F)(F)F)cc1)C(=O)NC1(c2ccc(-c3nnn[nH]3)cc2)CC1 [Example 69, (R)—N-(1-(4-(1H-tetrazol-5-yl)phenyl)cyclopropyl)-3-methyl-2-((4-(trifluoromethyl)benzyl)oxy)butanamide] | 0.955
CC(C)[C@@H](OCc1ccc(F)cc1)C(=O)NC1(c2ccc(-c3nnn[nH]3)cc2)CC1 [Example 70, (R)—N-(1-(4-(1H-tetrazol-5-yl)phenyl)cyclopropyl)-2-((4-fluorobenzyl)oxy)-3-methylbutanamide] | 6.92
CC(C)[C@@H](OCc1ccc(F)c(F)c1)C(=O)NC1(c2ccc(-c3nnn[nH]3)cc2)CC1 [Example 71, (R)—N-(1-(4-(1H-tetrazol-5-yl)phenyl)cyclopropyl)-2-((3,4-difluorobenzyl)oxy)-3-methylbutanamide] | 0.372
CC(C)[C@@H](OCc1cccc(OC(F)F)c1)C(=O)NC1(c2ccc(-c3nnn[nH]3)cc2)CC1 [Example 72, (R)—N-(1-(4-(1H-tetrazol-5-yl)phenyl)cyclopropyl)-2-((3-(difluoromethoxy)benzyl)oxy)-3-methylbutanamide] | 0.589
CC(C)[C@@H](OCc1ccc(C(F)(F)F)cc1)C(=O)NC1(c2ccc(C(=O)O)cc2)CCC1 [Example 73, (R)-4-(1-(3-methyl-2-((4-(trifluoromethyl)benzyl)oxy)butanamido)cyclobutyl)benzoic acid] | 182
CC(C)[C@@H](OCc1ccnc(OC(F)F)c1)C(=O)N[C@@H](C)c1ccc(C(=O)O)cc1 [Example 74, 4-((S)-1-((R)-2-((2-(difluoromethoxy)pyridin-4-yl)methoxy)-3-methylbutanamido)ethyl)benzoic acid] | 0.447
CC(C)[C@@H](OCc1ccc(C(F)(F)F)cn1)C(=O)NC1(c2ccc(C(=O)O)cc2)CC1 [Example 75, (R)-4-(1-(3-methyl-2-((5-(trifluoromethyl)pyridin-2-yl)methoxy)butanamido)cyclopropyl)benzoic acid] | 69.2
CC(C)[C@@H](OCc1ccc(C(F)(F)F)nc1)C(=O)NC1(c2ccc(C(=O)O)cc2)CC1 [Example 76, (R)-4-(1-(3-methyl-2-((6-(trifluoromethyl)pyridin-3-yl)methoxy)butanamido)cyclopropyl)benzoic acid] | 33.1
CC(C)[C@@H](OCc1cc(OC(F)F)ccn1)C(=O)N[C@@H](C)c1ccc(C(=O)O)cc1 [Example 77, 4-((S)-1-((R)-2-((4-(difluoromethoxy)pyridin-2-yl)methoxy)-3-methylbutanamido)ethyl)benzoic acid] | 27.5
CC(C)[C@@H](OCc1ccc(F)c(Cl)c1)C(=O)NC1(c2ccc(C(=O)O)cc2)CC1 [Example 78, (R)-4-(1-(2-((3-chloro-4-fluorobenzyl)oxy)-3-methylbutanamido)cyclopropyl)benzoic acid] | > 20900
CC(C)[C@@H](OCc1ccc(Cl)c(F)c1)C(=O)NC1(c2ccc(C(=O)O)cc2)CC1 [Example 79] | 2.45
CC(C)[C@@H](OCc1cccc(C2CC2)c1)C(=O)NC1(c2ccc(-c3nnn[nH]3)cc2)CC1 [Example 80, (R)-2-((3-cyclopropylbenzyl)oxy)-N-(1-(4-(2,3-dihydro-1H-tetrazol-5-yl)phenyl)cyclopropyl)-3-methylbutanamide] | 0.195
CC(C)[C@@H](OCc1ccc(F)cc1)C(=O)N[C@@H](C)c1ccc(C(=O)NS(=O)(=O)C2CC2)cc1 [Example 81, N-(cyclopropylsulfonyl)-4-((S)-1-((R)-2-((4-fluorobenzyl)oxy)-3-methylbutanamido)ethyl)benzamide] | 302
CC(C)[C@@H](OCc1cccc(OC(F)F)c1)C(=O)N[C@@H](C)c1ccc(-c2nnn[nH]2)cc1 [Example 82, (R)—N—((S)-1-(4-(1H-tetrazol-5-yl)phenyl)ethyl)-2-((3-(difluoromethoxy)benzyl)oxy)-3-methylbutanamide] | 0.0871
CC(C)[C@@H](OCc1cccc(C2CC2)c1)C(=O)N[C@@H](C)c1ccc(-c2nnn[nH]2)cc1 [Example 83, (R)—N—((S)-1-(4-(1H-tetrazol-5-yl)phenyl)ethyl)-2-((3-cyclopropylbenzyl)oxy)-3-methylbutanamide] | 0.186
